According to publication PMC9699600, “Characterization of a Family of Scorpion Toxins Modulating Ca^2+-Activated Cl^− Current in Vascular Myocytes” (Toxins, 2022):

Experiments:
[1] = tested on: Ca2+-activated and voltage-activated K+ currents; test: Ca2+-activated and voltage-activated K+ currents, patch clamp; type: cell-based, rat; details: 100 nM, sequential application
Method: For K^+ current recording, the patch-clamp pipette contained 130 mM KCl and the external solution contained 5.6 mM KCl. Ca^2+-activated and voltage-activated K^+ currents were elicited by depolarizing pulses from −80 to 0 mV and Ca^2+-activated K^+ currents were activated by the opening of Ca^2+ channel during the depolarization step.
Voltage-clamp and membrane current recordings were made with a standard patch-clamp technique using a List EPC-7 patch-clamp amplifier (Darmstadt-Eberstadt, Germany). Patch pipettes had resistances of 3–4 MΩ. […] Patch-clamp experiments were carried out at 30 ± 1 °C.
The normal physiological solution contained (in mM): NaCl 130, KCl 5.6, MgCl2 1, CaCl2 2, glucose 11 and HEPES 10, pH 7.4 with NaOH. The basic pipette solution contained (in mM) CsCl 130, HEPES 10 and pH 7.3 with NaOH (CsCl was replaced by KCl for potassium current measurements). […] Lqh peptides, chlorotoxin and other toxins were added in a bath solution.

[2] = biological target: T1, Ca2+-activated Cl− current (TMEM16A/Ano1) in rat portal vein myocytes (Rattus norvegicus, UniProt A0A8I6GL36); test: Ca2+-activated Cl− current evoked by caffeine, whole-cell patch clamp; type: cell-based; details: 1 µM external application, 10 mM caffeine, holding potential −50 mV
T1 construct: Isolated myocytes from rat portal veins were obtained by enzymatic dispersion; endogenous in cells; host or cells: freshly dissociated rat portal vein smooth muscle cells (short-term primary culture, used within 24 h)
T1 sequence (A0A8I6GL36 1-990): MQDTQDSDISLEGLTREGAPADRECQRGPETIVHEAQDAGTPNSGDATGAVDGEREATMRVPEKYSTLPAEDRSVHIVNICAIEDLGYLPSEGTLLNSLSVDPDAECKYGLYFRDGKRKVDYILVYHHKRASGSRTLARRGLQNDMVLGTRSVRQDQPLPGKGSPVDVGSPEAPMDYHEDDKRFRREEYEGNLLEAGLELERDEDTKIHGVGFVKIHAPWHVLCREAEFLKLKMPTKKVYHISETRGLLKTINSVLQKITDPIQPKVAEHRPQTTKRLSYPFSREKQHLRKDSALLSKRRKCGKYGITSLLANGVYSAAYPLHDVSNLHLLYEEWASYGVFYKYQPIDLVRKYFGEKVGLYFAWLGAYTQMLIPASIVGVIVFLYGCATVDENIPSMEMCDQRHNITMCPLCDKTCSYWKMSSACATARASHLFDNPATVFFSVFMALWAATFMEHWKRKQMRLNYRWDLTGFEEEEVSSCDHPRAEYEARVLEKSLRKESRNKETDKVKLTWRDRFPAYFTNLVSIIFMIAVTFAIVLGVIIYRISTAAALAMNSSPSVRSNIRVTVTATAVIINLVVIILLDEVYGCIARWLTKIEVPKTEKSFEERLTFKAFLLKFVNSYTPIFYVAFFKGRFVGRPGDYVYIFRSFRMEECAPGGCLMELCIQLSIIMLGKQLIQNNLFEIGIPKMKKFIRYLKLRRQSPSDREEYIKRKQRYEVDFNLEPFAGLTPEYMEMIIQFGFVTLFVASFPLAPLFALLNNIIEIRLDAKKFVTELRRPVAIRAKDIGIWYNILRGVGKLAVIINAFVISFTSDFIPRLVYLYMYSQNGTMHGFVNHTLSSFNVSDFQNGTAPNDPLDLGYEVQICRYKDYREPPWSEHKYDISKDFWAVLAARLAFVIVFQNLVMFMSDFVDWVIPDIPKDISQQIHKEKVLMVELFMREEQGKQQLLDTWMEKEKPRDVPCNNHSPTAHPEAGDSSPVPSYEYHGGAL
Method: In rat portal vein myocytes, at a holding potential of −50 mV, the external application of 10 mM caffeine induces a transient current depending on an increase in cytoplasmic Ca^2+ concentration, this current was characterized as Cl^− current [9] in the used experimental conditions. The amplitude of the Ca^2+-activated Cl^− current in our setup was 190 ± 20 pA (n = 101).
Isolated myocytes from rat portal veins were obtained by enzymatic dispersion, as described previously (Morel et al. 1996).
Voltage-clamp and membrane current recordings were made with a standard patch-clamp technique using a List EPC-7 patch-clamp amplifier (Darmstadt-Eberstadt, Germany). Patch pipettes had resistances of 3–4 MΩ. When [Ca^2+]i measurements were carried out simultaneously, Indo-1 (50 µM) was added to the pipette solution in the whole-cell recording mode and [Ca^2+]i was estimated from the 405/480 nm fluorescence ratio, using a calibration determined within cells, as previously described [36]. Patch-clamp experiments were carried out at 30 ± 1 °C. […]
The pooled data of n experiments are given as mean ± standard error. […] Inhibition-response curves were analyzed by a nonlinear least-squares fitting program according to models involving one or two binding sites (Graphpad-Prism software).

Substance: scyllatoxin (AFCNLRMCQLSCRSLGLLGKCIGDKCECVKH; UniProt P16341 1-31, looked up) [K+ channel toxin from Latoxan]
- effect on K+ currents (confirmation of both types of K+ currents) [1]: inhibition

Substance: chlorotoxin
- inhibition of the Ca2+-activated Cl− current at 1 µM [2]: 36 ± 9%

Substance: charybdotoxin
- effect on K+ currents (confirmation of both types of K+ currents) [1]: inhibition
